Data on 29 compounds can be found in ChEMBL document CHEMBL5252562, “Synthesis, evaluation of anti-breast cancer activity in vitro of ICS II derivatives and summary of the structure-activity relationship” (Bioorg Med Chem, 2023).

SMILES strings stand for the structures.

Broadly, the IC50 is the concentration that gives 50% inhibition.

In data set [1] the test system is MCF7. The data set is described as follows: Antitumor activity against human MCF7 cells assessed as cell viability incubated for 48 hrs by CCK8 assay. The following applies: MCF7, 48 h. Type of data set: functional, cell-based.
Data set [2] is described as follows: Cytotoxicity against African green monkey Vero cells. Type of data set: toxicity, cell-based. As to conditions: African green monkey (Chlorocebus sabaeus).
A short description of data set [3]: Selectivity index, ratio of IC50 for cytotoxicity against African green monkey Vero cells to IC50 for antitumor activity against human MCF7 cells. Type of data set: toxicity, cell-based. The following applies: Vero cells and MCF7 cells, read-out: Ratio IC50.
The subject of data set [4] is MCF7. The data set is described as follows: Antitumor activity against human MCF7 cells assessed as cell viability at 20 uM incubated for 48 hrs by CCK8 assay. Type of data set: functional. The following applies: read-out: Activity. A general note: Tetrazolium dyes change colour on reduction, which living cells bring about.
Data set [5] has as its system MCF7. Nature of the data set: Potency index, ratio of Icariside-II IC50 to test compound IC50 for antitumor activity against human MCF7 cells. Type of data set: functional.

For `COc1ccc(-c2oc3c(CC=C(C)C)c(OCC=C(C)C)cc(O)c3c(=O)c2O[C@@H]2O[C@@H](C)[C@H](O)[C@@H](O)[C@H]2O)cc1`, the results for the IC50 (in the data set on MCF7 [1]; in data set [2]) were 2.17 µM and 6.74 µM, respectively. For the same compound, in data set [3], the selectivity ratio was found to be 2.85. Also, the viability at 20 µM with MCF7 [4] is below 50%.

`COc1ccc(-c2oc3c(CC=C(C)C)c(OCCO)cc(O)c3c(=O)c2O[C@@H]2O[C@@H](C)[C@H](O)[C@@H](O)[C@H]2O)cc1`: the IC50 with MCF7 [1] is 10.2 µM. In the data set with MCF7 [4], the viability at 20 µM is below 50%.

As for `C#CCOc1cc(OCC#C)c2c(=O)c(O[C@@H]3O[C@@H](C)[C@H](O)[C@@H](O)[C@H]3O)c(-c3ccc(OC)cc3)oc2c1CC=C(C)C`, the IC50 in the data set with MCF7 [1] amounted to 6.24 µM. Further, the viability at 20 µM in the data set with MCF7 [4] is below 50%.

As for `COc1ccc(-c2oc3c(CC=C(C)C)c(O)c(CN4CCCC4)c(O)c3c(=O)c2O[C@@H]2O[C@@H](C)[C@H](O)[C@@H](O)[C@H]2O)cc1`, in the data set with MCF7 [1], the IC50 is above 20 µM.

In the case of `COc1ccc(-c2oc3c(CC=C(C)C)c(OC(C)=O)cc(OC(C)=O)c3c(=O)c2O[C@@H]2O[C@@H](C)[C@H](OC(C)=O)[C@@H](OC(C)=O)[C@H]2OC(C)=O)cc1`, the IC50 in the data set with MCF7 [1] was found to be 0.7 µM; in data set [2] it was 3.13 µM. In addition, the selectivity ratio in data set [3] was determined as 4.47. The viability at 20 µM with MCF7 [4] is below 50%. For the same compound, the “Ratio IC50” value in the data set with MCF7 [5] is reported as 5.

With `C=CCOc1cc(O)c2c(=O)c(O[C@@H]3O[C@@H](C)[C@H](O)[C@@H](O)[C@H]3O)c(-c3ccc(OC)cc3)oc2c1CC=C(C)C`, the IC50 stood at 2.89 µM in the data set on MCF7 [1] and 5.88 µM in data set [2]. For the same compound, the selectivity ratio in data set [3] was found to be 2.03. For the same compound, the viability at 20 µM in the data set on MCF7 [4] is below 50%.

On to `COc1ccc(-c2oc3c(CC=C(C)C)c(O)c(CN(C(C)C)C(C)C)c(O)c3c(=O)c2O[C@@H]2O[C@@H](C)[C@H](O)[C@@H](O)[C@H]2O)cc1`, for which, in the data set with MCF7 [1], the IC50 is above 20 µM.

As for `COc1ccc(-c2oc3c(CC=C(C)C)c(O)c(CN4CCCCC4)c(O)c3c(=O)c2O[C@@H]2O[C@@H](C)[C@H](O)[C@@H](O)[C@H]2O)cc1`, in the data set with MCF7 [1], the IC50 is above 20 µM.

Take `COc1ccc(-c2oc3c(CC=C(C)C)c(OCCCN4CCNCC4)cc(O)c3c(=O)c2O[C@@H]2O[C@@H](C)[C@H](O)[C@@H](O)[C@H]2O)cc1`: the IC50 in the data set on MCF7 [1] was 4.07 µM; in data set [2], above 20 µM. The selectivity ratio in data set [3] was above 5. In the data set on MCF7 [4], the viability at 20 µM was below 50%.

For `COc1ccc(-c2oc3c(CC=C(C)C)c(OCCCBr)cc(O)c3c(=O)c2O[C@@H]2O[C@@H](C)[C@H](O)[C@@H](O)[C@H]2O)cc1`, the IC50 in the data set with MCF7 [1] amounted to 13.4 µM. Besides, the viability at 20 µM in the data set on MCF7 [4] is below 50%.

Consider `C=C(C)COc1c(CN2CCC(C)CC2)c(O)c2c(=O)c(O[C@@H]3O[C@@H](C)[C@H](O)[C@@H](O)[C@H]3O)c(-c3ccc(OC)cc3)oc2c1CC=C(C)C`, for which the IC50 in the data set on MCF7 [1] was above 20 µM.

Take `COc1ccc(-c2oc3c(CC=C(C)C)c(OCC4OCCO4)cc(O)c3c(=O)c2O[C@@H]2O[C@@H](C)[C@H](O)[C@@H](O)[C@H]2O)cc1`: the IC50 in the data set with MCF7 [1] was 6.28 µM. Besides, the viability at 20 µM in the data set on MCF7 [4] was below 50%.

Turning to `CCN(CC)Cc1c(O)c(CC=C(C)C)c2oc(-c3ccc(OC)cc3)c(O[C@@H]3O[C@@H](C)[C@H](O)[C@@H](O)[C@H]3O)c(=O)c2c1O`, the IC50 with MCF7 [1] is above 20 µM.

For the compound `COc1ccc(-c2oc3c(CC=C(C)C)c(OCCCN4CCC(C)CC4)cc(O)c3c(=O)c2O[C@@H]2O[C@@H](C)[C@H](O)[C@@H](O)[C@H]2O)cc1`, the IC50 in the data set on MCF7 [1] was 3.17 µM; in data set [2], 10.3 µM. In data set [3], the selectivity ratio was 3.24. In addition, the viability at 20 µM in the data set on MCF7 [4] is below 50%.

For `CCOc1cc(O)c2c(=O)c(O[C@@H]3O[C@@H](C)[C@H](O)[C@@H](O)[C@H]3O)c(-c3ccc(OC)cc3)oc2c1CC=C(C)C`, the IC50 with MCF7 [1] turned out to be 8.25 µM. Further, the viability at 20 µM in the data set on MCF7 [4] was below 50%.

As to `COc1ccc(-c2oc3c(CC=C(C)C)c(O)c(CN4CCN(C)CC4)c(O)c3c(=O)c2O[C@@H]2O[C@@H](C)[C@H](O)[C@@H](O)[C@H]2O)cc1`, in the data set on MCF7 [1], the IC50 is above 20 µM.

As to `COc1ccc(-c2oc3c(CC=C(C)C)c(OCCCCCCCCCO)cc(O)c3c(=O)c2O[C@@H]2O[C@@H](C)[C@H](O)[C@@H](O)[C@H]2O)cc1`, the IC50 in the data set on MCF7 [1] is 10.2 µM. Further, in the data set on MCF7 [4], the viability at 20 µM was below 50%.

On to `C#CCOc1cc(O)c2c(=O)c(O[C@@H]3O[C@@H](C)[C@H](O)[C@@H](O)[C@H]3O)c(-c3ccc(OC)cc3)oc2c1CC=C(C)C`, for which the results for the IC50 (in the data set on MCF7 [1]; in data set [2]) were 2.79 µM and 6.43 µM, respectively. For the same compound, in data set [3], the selectivity ratio came out at 2.3. Further, the viability at 20 µM in the data set on MCF7 [4] was below 50%.

As to `COc1ccc(-c2oc3c(CC=C(C)C)c(OCc4ccc([N+](=O)[O-])cc4)cc(O)c3c(=O)c2O[C@@H]2O[C@@H](C)[C@H](O)[C@@H](O)[C@H]2O)cc1`, the IC50 in the data set with MCF7 [1] was above 20 µM.

As for `COc1ccc(-c2oc3c(CC=C(C)C)c(OCCCN4CCCCC4)cc(O)c3c(=O)c2O[C@@H]2O[C@@H](C)[C@H](O)[C@@H](O)[C@H]2O)cc1`, the values for the IC50 (in the data set with MCF7 [1]; in data set [2]) were 3.79 µM and 15.5 µM, respectively. Moreover, in data set [3], the selectivity ratio stood at 4.08. For the same compound, the viability at 20 µM with MCF7 [4] is below 50%.

For the compound `C=C(C)COc1cc(O)c2c(=O)c(O[C@@H]3O[C@@H](C)[C@H](O)[C@@H](O)[C@H]3O)c(-c3ccc(OC)cc3)oc2c1CC=C(C)C`, the figures for the IC50 (in the data set with MCF7 [1]; in data set [2]) were 3.97 µM and 8.18 µM, respectively. In data set [3], the selectivity ratio was 2.06. Moreover, the viability at 20 µM in the data set with MCF7 [4] was below 50%.

With `COc1ccc(-c2oc3c(CC=C(C)C)c(O)c(CN4CCNCC4)c(O)c3c(=O)c2O[C@@H]2O[C@@H](C)[C@H](O)[C@@H](O)[C@H]2O)cc1`, the IC50 in the data set on MCF7 [1] was above 20 µM.

Regarding `CCN(CC)CCCOc1cc(O)c2c(=O)c(O[C@@H]3O[C@@H](C)[C@H](O)[C@@H](O)[C@H]3O)c(-c3ccc(OC)cc3)oc2c1CC=C(C)C`, the IC50 in the data set with MCF7 [1] amounted to 3.26 µM; in data set [2] it was 6.19 µM. Also, the selectivity ratio in data set [3] amounted to 1.89. Further, in the data set with MCF7 [4], the viability at 20 µM is below 50%.

For `COc1ccc(-c2oc3c(CC=C(C)C)c(OCCCN4CCCC4)cc(O)c3c(=O)c2O[C@@H]2O[C@@H](C)[C@H](O)[C@@H](O)[C@H]2O)cc1`, the figures for the IC50 (with MCF7 [1]; in data set [2]) were 3.09 µM and 6.15 µM, respectively. Besides, the selectivity ratio in data set [3] is 1.99. The viability at 20 µM in the data set with MCF7 [4] was below 50%.

Take `COc1ccc(-c2oc3c(CC=C(C)C)c(O)c(CN4CCC(C)CC4)c(O)c3c(=O)c2O[C@@H]2O[C@@H](C)[C@H](O)[C@@H](O)[C@H]2O)cc1`: in the data set with MCF7 [1], the IC50 is 17.4 µM.

As for `COc1ccc(-c2oc3c(CC=C(C)C)c(OC(=O)N(C)C)cc(O)c3c(=O)c2O[C@@H]2O[C@@H](C)[C@H](O)[C@@H](O)[C@H]2O)cc1`, the IC50 in the data set with MCF7 [1] is above 20 µM.

In the case of `COc1ccc(-c2oc3c(CC=C(C)C)c(OC(C)=O)cc(O)c3c(=O)c2O[C@@H]2O[C@@H](C)[C@H](OC(C)=O)[C@@H](OC(C)=O)[C@H]2OC(C)=O)cc1`, the values for the half-inhibitory concentration (IC50) (with MCF7 [1]; in data set [2]) were 1.54 µM and 3.88 µM, respectively. In data set [3], the selectivity ratio is 2.51. For the same compound, in the data set with MCF7 [4], the viability at 20 µM is below 50%.

Turning to `COc1ccc(-c2oc3c(CC=C(C)C)c(O)cc(O)c3c(=O)c2O[C@@H]2O[C@@H](C)[C@H](O)[C@@H](O)[C@H]2O)cc1`, the IC50 with MCF7 [1] turned out to be 7.52 µM; in data set [2], 9.34 µM. The selectivity ratio in data set [3] amounted to 1.24.

Turning to `CC(=O)O[C@H]1C(=O)[C@@]2(C)[C@H]([C@H](OC(=O)c3ccccc3)[C@]3(O)C[C@H](OC(=O)[C@H](O)[C@@H](NC(=O)c4ccccc4)c4ccccc4)C(C)=C1C3(C)C)[C@]1(OC(C)=O)CO[C@@H]1C[C@@H]2O` [PACLITAXEL], the IC50 in the data set on MCF7 [1] is 0.48 µM.
